Experiment: Acid dissociation constant by alkali titration
Type: physicochemical
Details: mixed solvent of tetrahydrofuran/water=6/4 by volume at 25° C.
Protocol: For measurement of the acid dissociation constant in the invention, employed is the alkali titration method described in Experimental Chemistry Course, 2nd Ed., pp. 215-217 (published by Maruzen).
The organic acid A is Tokyo Chemical's 1-benzyl-5-phenylbarbituric acid, and its acid dissociation constant in a mixed solvent of tetrahydrofuran/water=6/4 by volume at 25° C. is 4.0.

Compound: O=C1NC(=O)N(Cc2ccccc2)C(=O)C1c1ccccc1 (stereo not shown) [organic acid A, 1-benzyl-5-phenylbarbituric acid]
- acid dissociation constant: 4.0

Reference: patent US9201173B2, “Polarizer protective film, polarizer, and liquid crystal display device” (FUJIFILM CORPORATION, priority 2010, dated 2015)
